This note sets out measurements from patent US20070231202A1 (priority 2006, published 2007).

The structures appear in SMILES notation.

One experiment deals with prions. Conditions: 59% solution admitted into sterilization chamber under vacuum, vapor at one point excited into plasma.
The test system of experiment [1] is prions (10% brain homogenates from hamsters with scrapie). It is filed as in vivo, hamster. The note with it: hydrogen peroxide vapor of higher concentrations and/or higher plasma density.

Turning to `OO` [hydrogen peroxide], in the experiment on prions, the “inactivation of prions on the instruments” value is listed as “failed to sufficiently inactivate prions”. Moreover, in experiment [1], the “inactivating prions, rendering article non-infectious for prion diseases” value is given as “effective in inactivating prions”.
